# Data: patent US8916681B2, “Compound, use and method” (Medical Research Council, priority 2007, dated 2014)
# Non-standard residues stand in square brackets, D forms with d. Residues, ends and D or L forms follow the SMILES beside them.
# Experiments:
# Type in all cases: cell-based
# [1] = target: T1, GPR54 (Homo sapiens, UniProt Q969F8); test: Inositol phosphate (IP) stimulation assay in CHO/gpr-54 cells; set-up: G. Vassart, Univ; Brussels; conditions: CHO cells stably-expressing human gpr-54
# T1 sequence (Q969F8 whole entry): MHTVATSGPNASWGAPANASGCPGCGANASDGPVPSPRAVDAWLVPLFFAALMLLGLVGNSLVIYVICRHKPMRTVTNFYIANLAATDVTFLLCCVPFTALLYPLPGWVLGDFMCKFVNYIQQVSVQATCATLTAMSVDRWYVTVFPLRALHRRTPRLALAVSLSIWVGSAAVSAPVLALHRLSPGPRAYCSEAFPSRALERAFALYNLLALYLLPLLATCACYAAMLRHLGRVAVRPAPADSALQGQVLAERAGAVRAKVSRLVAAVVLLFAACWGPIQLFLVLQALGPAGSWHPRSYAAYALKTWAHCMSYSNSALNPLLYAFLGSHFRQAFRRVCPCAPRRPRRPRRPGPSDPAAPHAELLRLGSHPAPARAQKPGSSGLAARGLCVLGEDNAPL
# Protocol: Inositol-3-phoshate Stimulation Assay—Cell monolayers had 0.5 mls HEPES modified DMEM supplemented with 1% Penicillin/Streptomycin for 30 mins at 37° C. to block IP3 breakdown. Cells were then stimulated with 0.5 mls Kisspeptin-10 and analogues (10 pM-1 uM) diluted at 1:1000 in the above media for 1 hr at 37° C., then in 10 mM Formic acid at 4° C. for 1 hr to lyse cells. Lysate was then transferred to plastic tubes containing 0.5 mls Dowex resin to bind the radioactive IP3 and the resin was then washed with 1 ml H2O. The resin was then washed with 60 mM NH4 formate/5 mM Sodium tetraborate followed by 1M NH4 formate/0.1M Formic acid to release the bound radiation. Then 800 μls of the radioactive solution were transferred to scintillation vials containing 2.5 mls scintillation fluid and radioactivity counted on a Beta counter for 60 seconds.
# IP stimulation refers to intrinsic residual agonist activity where estimateable.
# The cells were maintained in Dulbecco's modified Eagle's medium (DMEM; Sigma) supplemented with 10% fetal calf serum, 2% glutamine and 1% penicillin (10,000 units/ml)/streptomycin (10,000 mg/ml) at 37° C. in a humidified 5% CO2 atmosphere.
# Prior to stimulation CHO/gpr-54 cells were washed twice with Dulbecco's phosphate-buffered saline (DPBS; without calcium or magnesium) then incubated overnight with ^3H-myoinositol, labeled HEPES-modified DMEM with 1% penicillin/streptomycin at 37° C. HEPES-modified DMEM supplemented with 1% penicillin/streptomycin and 1% lithium chloride (0.5 ml) was added to cells for 30 min at 37° C. to block IP hydrolysis. Cells were then stimulated with 0.5 ml kisspeptin-10 and analogues (10 pM-1 μM) diluted at 1:100 in the above media for 1 h at 37° C., then with 10 mM formic acid at 4° C. for 1 h to lyse cells. Lysates were transferred to plastic tubes containing 0.5 ml Dowex resin to bind the radioactive IP and the resin was then washed with 1 ml water. The resin was next washed with 60 mM ammonium formate/5 mM sodium tetraborate. followed by 1M ammonium formate/0.1M formic acid to release the bound radiation. Then 800 μl of the radioactive solution were transferred to scintillation vials containing 2.5 ml scintillation fluid and radioactivity counted on a Beta counter for 60 sec. Experiments were repeated 3-5 times. IP production was plotted as mean values±SEM and analyzed by using a Student's t-Test (p≧0.05).
# [2] = target: T1, GPR54; test: Inositol phosphate (IP) antagonism assay: inhibition of 10 nM kisspeptin-10 stimulation of IP in CHO/gpr-54 cells; set-up: G. Vassart, Univ; Brussels; conditions: CHO cells, 10 nM kisspeptin-10; for IC50: unit inferred, given in M
# Protocol: Inositol-3-phoshate Antagonistic Assay—Cell monolayers had 0.5 mls HEPES modified DMEM supplemented with […] for 30 mins at 37° C. to block IP3 breakdown. Cells were then stimulated with 0.25 mls 10 nM Kisspeptin-10 plus 0.25 mls of 10 nM Kisspeptin-10 or analogues (10 pM-10 uM) diluted at 1:1000 in the above media for 1 hr at 37° C., then in 10 mM Formic acid at 4° C. for 1 hr to lyse cells. Lysate was then transferred to plastic tubes containing 0.5 mls Dowex resin to bind the radioactive IP3 and the resin was then washed with 1 ml H2O. The resin was then washed with 60 mM NH4 formate/5 mM Sodium tetraborate followed by 1M NH4 formate/0.1M Formic acid to release the bound radiation. Then 800 μls of the radioactive solution were transferred to scintillation vials containing 2.5 mls scintillation fluid and radioactivity counted on a Beta counter for 60 seconds.
# Chinese hamster ovary (CHO) cells stably-expressing the human gpr-54 receptor (CHO/gpr-54) were obtained from Prof. G. Vassart, Univ. Brussels. The cells were maintained in Dulbecco's modified Eagle's medium (DMEM; Sigma) supplemented with 10% fetal calf serum, 2% glutamine and 1% penicillin (10,000 units/ml)/streptomycin ([…]) at 37° C. in a humidified 5% CO2 atmosphere.
# Experiments were repeated 3-5 times. IP production was plotted as mean values±SEM and analyzed using a Student's t-Test ([…]).
# [3] = system: HUVECs (Human Umbilical Vein Endothelial Cells); test: Cell migration (wound healing) assay in HUVECs; conditions: 22 hrs
# Protocol: Human Umbilical Vein Endothelial Cells (HUVECs) isolated from neonatal umbilical cord were used as they endogenously express gpr-54, which is though to be involved in cell migration in the placenta. Chinese hamster ovary (CHO) cells which stably express the human gpr-54 receptor were used as a model cell line for wound healing assays. […] Complete media was added along with 1 nM Kisspeptin-10 for HUVECs and 100 nM Kisspeptin-10 for CHO cells, the optimal concentrations to inhibit cell migration (wound healing) in each cell type, in the presence and absence of antagonist 233, 234, 273 and 276 for HUVECs and 234 for CHOs. […] Cells were photographed on the axiovert 2000 at 20× magnification in phase contrast (Hori et al., 2001. Metastin suppresses the motility and growth of CHO cells transfected with its receptor. Biochem Biophys Res Commun 286, 958-963; Stafford et al., 2002, Identification and characterization of mouse metastasis-suppressor KiSS1 and its G-protein-coupled receptor. Cancer Res 62, 5399-5404).
Compound,stimulation of IP by the peptide alone [1],IC50 [2] [µM],Inhibition of IP stimulation by 10 nM Agonist: % Inhibition of Max [2] [%],inhibition of migration by 1 nM Kisspeptin in the presence of peptide [3] [%]
CC(=O)N[C@H](Cc1ccc(O)cc1)C(=O)N[C@@H](CC(N)=O)C(=O)N[C@@H](Cc1c[nH]c2ccccc12)C(=O)N[C@@H](CC(N)=O)C(=O)NCC(=O)N[C@@H](Cc1ccccc1)C(=O)NCC(=O)N[C@H](Cc1c[nH]c2ccccc12)C(=O)N[C@@H](CCCNC(=N)N)C(=O)N[C@@H](Cc1ccccc1)C(N)=O [Peptide 230] (Ac-[dY]NWNGFG[dW]RF-NH2),little or no stimulation,0.05,–,–
CC(=O)N[C@@H](Cc1ccc(O)cc1)C(=O)N[C@@H](CC(N)=O)C(=O)N[C@H](C)C(=O)N[C@@H](CC(N)=O)C(=O)NCC(=O)N[C@@H](Cc1ccccc1)C(=O)NCC(=O)N[C@H](Cc1c[nH]c2ccccc12)C(=O)N[C@@H](CCCNC(=N)N)C(=O)N[C@@H](Cc1ccccc1)C(N)=O [Peptide 235] (Ac-YN[dA]NGFG[dW]RF-NH2),little or no stimulation,0.01,–,–
CC(C)C[C@H](NC(=O)CNC(=O)[C@H](Cc1ccccc1)NC(=O)CNC(=O)[C@H](CC(N)=O)NC(=O)[C@H](Cc1c[nH]c2ccccc12)NC(=O)[C@H](CC(N)=O)NC(=O)[C@@H](N)Cc1ccc(O)cc1)C(=O)N[C@@H](CCCNC(=N)N)C(=O)N[C@@H](Cc1ccccc1)C(N)=O [Peptide 208] (H-YNWNGFGLRF-NH2),–,1,55,–
CC(=O)N[C@@H](CC(N)=O)C(=O)N[C@@H](CO)C(=O)N[C@@H](Cc1ccccc1)C(=O)NCC(=O)N[C@@H](CC(C)C)C(=O)N[C@@H](CCCNC(=N)N)C(=O)N[C@@H](Cc1ccccc1)C(N)=O [Peptide 186] (Ac-NSFGLRF-NH2),–,–,70,–
CC(=O)N[C@@H](Cc1ccccc1)C(=O)NCC(=O)N[C@@H](CC(C)C)C(=O)N[C@@H](CCCNC(=N)N)C(=O)N[C@@H](Cc1c[nH]c2ccccc12)C(N)=O [Peptide 189],–,–,94,–
CC(C)C[C@H](NC(=O)CNC(=O)[C@@H](Cc1ccccc1)NC(=O)CNC(=O)[C@H](CC(N)=O)NC(=O)[C@H](Cc1c[nH]c2ccccc12)NC(=O)[C@H](CC(N)=O)NC(=O)[C@@H](N)Cc1ccc(O)cc1)C(=O)N[C@@H](CCCNC(=N)N)C(=O)N[C@@H](Cc1ccccc1)C(N)=O [Peptide 211] (H-YNWNG[dF]GLRF-NH2),–,1,73,–
CC(=O)N[C@@H](Cc1ccccc1)C(=O)NCC(=O)N[C@H](Cc1ccccc1)C(=O)N[C@@H](CCCNC(=N)N)C(=O)N[C@@H](Cc1c[nH]c2ccccc12)C(N)=O [Peptide 190] (Ac-FG[dF]RW-NH2),–,0.01,71,–
CC(=O)N[C@@H](C)C(=O)NCC(=O)N[C@@H](CC(C)C)C(=O)N[C@@H](CCCNC(=N)N)C(=O)N[C@@H](Cc1c[nH]c2ccccc12)C(N)=O [Peptide 202] (Ac-AGLRW-NH2),–,0.01,64,–
CC(=O)N[C@@H](Cc1ccc(O)cc1)C(=O)N[C@H](CC(N)=O)C(=O)N[C@@H](Cc1c[nH]c2ccccc12)C(=O)N[C@@H](CC(N)=O)C(=O)NCC(=O)N[C@@H](Cc1ccccc1)C(=O)NCC(=O)N[C@H](Cc1c[nH]c2ccccc12)C(=O)N[C@@H](CCCNC(=N)N)C(=O)N[C@@H](Cc1ccccc1)C(N)=O [Peptide 232] (Ac-Y[dN]WNGFG[dW]RF-NH2),little or no stimulation,0.03,–,–
CC(=O)N[C@@H](Cc1ccc(O)cc1)C(=O)N[C@@H](CC(N)=O)C(=O)N[C@@H](Cc1c[nH]c2ccccc12)C(=O)N[C@@H](CC(N)=O)C(=O)N[C@H](C)C(=O)N[C@@H](Cc1ccccc1)C(=O)NCC(=O)N[C@H](Cc1c[nH]c2ccccc12)C(=O)N[C@@H](CCCNC(=N)N)C(=O)N[C@@H](Cc1ccccc1)C(N)=O [Peptide 233] (Ac-YNWN[dA]FG[dW]RF-NH2),little or no stimulation,0.02,–,10

# More lines, main results first:
stimulation of IP by the peptide alone [1],IC50 [2] [µM],Inhibition of IP stimulation by 10 nM Agonist: % Inhibition of Max [2] [%],Compound,inhibition of migration by 1 nM Kisspeptin in the presence of peptide [3] [%]
little or no stimulation,0.05,–,CC(=O)N[C@@H](Cc1ccc(O)cc1)C(=O)N[C@H](C)C(=O)N[C@@H](Cc1c[nH]c2ccccc12)C(=O)N[C@@H](CC(N)=O)C(=O)NCC(=O)N[C@@H](Cc1ccccc1)C(=O)NCC(=O)N[C@H](Cc1c[nH]c2ccccc12)C(=O)N[C@@H](CCCNC(=N)N)C(=O)N[C@@H](Cc1ccccc1)C(N)=O [Peptide 236] (Ac-Y[dA]WNGFG[dW]RF-NH2),–
–,0.004,79,CC(=O)N[C@H](C)C(=O)N[C@@H](CC(N)=O)C(=O)N[C@@H](Cc1c[nH]c2ccccc12)C(=O)N[C@@H](CC(N)=O)C(=O)N[C@H](CO)C(=O)N[C@@H](Cc1ccccc1)C(=O)NCC(=O)N[C@H](Cc1c[nH]c2ccccc12)C(=O)N[C@@H](CCCNC(=N)N)C(=O)N[C@@H](Cc1ccccc1)C(N)=O [Peptide 273] (Ac-[dA]NWN[dS]FG[dW]RF-NH2),10
–,0.0001,73,CC(=O)N[C@H](C)C(=O)N[C@@H](CC(N)=O)C(=O)N[C@@H](Cc1c[nH]c2ccccc12)C(=O)N[C@@H](CC(N)=O)C(=O)N1CCC[C@H]1C(=O)N[C@@H](Cc1ccccc1)C(=O)NCC(=O)N[C@H](Cc1c[nH]c2ccccc12)C(=O)N[C@@H](CCCNC(=N)N)C(=O)N[C@@H](Cc1ccccc1)C(N)=O [Peptide 274] (Ac-[dA]NWNPFG[dW]RF-NH2),–
–,–,0,CC(=O)N[C@H](Cc1ccc(O)cc1)C(=O)N[C@@H](CC(N)=O)C(=O)N[C@@H](Cc1c[nH]c2ccccc12)C(=O)N[C@@H](CC(N)=O)C(=O)NCC(=O)N[C@@H](Cc1ccccc1)C(=O)NCC(=O)N[C@@H](Cc1c[nH]c2ccccc12)C(=O)N[C@@H](CCCNC(=N)N)C(=O)N[C@@H](Cc1ccccc1)C(N)=O [Peptide 237] (Ac-[dY]NWNGFGWRF-NH2),–
–,–,0,CC(=O)N[C@H](Cc1ccc(O)cc1)C(=O)N[C@@H](CC(N)=O)C(=O)N[C@@H](Cc1c[nH]c2ccccc12)C(=O)N[C@@H](CC(N)=O)C(=O)N[C@@H](CO)C(=O)N[C@@H](Cc1ccccc1)C(=O)NCC(=O)N[C@H](Cc1c[nH]c2ccccc12)C(=O)N[C@@H](CCCNC(=N)N)C(=O)N[C@@H](Cc1ccccc1)C(N)=O [Peptide 238] (Ac-[dY]NWNSFG[dW]RF-NH2),–
–,–,64,CC(=O)N[C@H](C)C(=O)N[C@@H](CC(N)=O)C(=O)N[C@@H](Cc1c[nH]c2ccccc12)C(=O)N[C@@H](CC(N)=O)C(=O)NCC(=O)N[C@@H](Cc1ccccc1)C(=O)NCC(=O)N[C@@H](Cc1c[nH]c2ccccc12)C(=O)N[C@@H](CCCNC(=N)N)C(=O)N[C@@H](Cc1ccccc1)C(N)=O [Peptide 248] (Ac-[dA]NWNGFGWRF-NH2),–
–,0.01,60,CC(=O)N[C@H](Cc1ccccc1)C(=O)N[C@@H](CC(N)=O)C(=O)N[C@@H](Cc1c[nH]c2ccccc12)C(=O)N[C@@H](CC(N)=O)C(=O)NCC(=O)N[C@@H](Cc1ccccc1)C(=O)NCC(=O)N[C@H](Cc1c[nH]c2ccccc12)C(=O)N[C@@H](CCCNC(=N)N)C(=O)N[C@@H](Cc1ccccc1)C(N)=O [Peptide 244] (Ac-[dF]NWNGFG[dW]RF-NH2),–
–,–,57,CC(=O)N[C@H](C)C(=O)N[C@@H](CC(N)=O)C(=O)N[C@@H](Cc1c[nH]c2ccccc12)C(=O)N[C@@H](CC(N)=O)C(=O)N[C@H](C)C(=O)N[C@@H](Cc1ccccc1)C(=O)NCC(=O)N[C@@H](CC(C)C)C(=O)N[C@@H](CCCNC(=N)N)C(=O)N[C@@H](Cc1ccccc1)C(N)=O [Peptide 277] (Ac-[dA]NWN[dA]FGLRF-NH2),–
–,0.01,55,CC(=O)N[C@H](Cc1c[nH]c2ccccc12)C(=O)N[C@@H](CC(N)=O)C(=O)N[C@@H](Cc1c[nH]c2ccccc12)C(=O)N[C@@H](CC(N)=O)C(=O)NCC(=O)N[C@@H](Cc1ccccc1)C(=O)NCC(=O)N[C@H](Cc1c[nH]c2ccccc12)C(=O)N[C@@H](CCCNC(=N)N)C(=O)N[C@@H](Cc1ccccc1)C(N)=O [Peptide 243] (Ac-[dW]NWNGFG[dW]RF-NH2),–
